Measured values as given in EP0350948B1, “Porphyrin derivatives” (TOYOHAKKA KOGYO KABUSHIKI KAISHA, priority 1988, dated 1990).

Legend:
[1] = test system: nitrosoamine-induced pancreatic cancer; test: in vivo hemorrhagic necrosis effect; design: species or system hamsters; key to Hemorrhagic necrosis effect: four scales of G4, G3, G2 and G1; four scales of G4, G3, G2 and G1; four scales of G4, G3, G2 and G1; four scales of G4, G3, G2 and G1; conditions: for Hemorrhagic necrosis effect: intensity of hemorrhagic necrosis at 24 hours following i.v. administration, and pathological study
Experimental: Cancer bearing hamsters of Experiment 1 were i.v. administered the test substance C6-Ga-DP-diAsp (10) (10 mg/ml) which had been diluted with phosphate buffer at 25 mg/kg bodyweight and 12.5 mg/kg bodyweight respectively. The animals were exsanguinated and autopsied at 24 hours after administration, and observed.
The evaluation was based on the four scales of G4, G3, G2 and G1.

[2] = test system: nitrosoamine-induced pancreatic cancer; test: laser irradiation to the extirpated organ (excited fluorescent spectrum, N2-PLS measurement), tumor to tissue ratio; type: in vivo, Golden hamsters; conditions: i.v. 25 mg/kg bodyweight, organs extirpated at 24 hours after administration
Experimental: Golden hamsters (males, 5 per group, bodyweight approximately 150 g) were implanted subcutaneously tumor cells of the nitrosoamine-induced pancreatic cancer. After 14 to 21 days following implantation, animals were intravenously (i.v.) administered the test substance EG-Ga-DP-diGly (10 mg/ml) which had been diluted with phosphate buffer at 25 mg/kg bodyweight. At 24 hours after administration, the organs including the tumor were extirpated, irradiated with N2-pulsed laser (N2, 337 nm, 2 ns, 400 - 1000 nm), and measured of excited fluorescent spectrum. The wavelengths of 600 - 900 nm were studied using the peak wavelength of NADH at 470 nm as a reference. (N2-PLS measurement). […] (Tumor to tissue ratio).
Excited fluorescent spectra of the organs extirpated at 24 hours after administration were measured, and the peak wavelength at 600 - 900 nm was calculated by setting the peak wavelength at 470 nm as the reference 1. As fluorescence in Mn, Fe and Cu complexes is not sufficiently intense as to enable N2-PLS measurement, the extraction method was applied to these compounds. At 24 hours following administration, the organs were extracted with an organic solvent (such as chloroform-methanol) via acetone powder, and the obtained extract was measured of UV or HPLC to calculate the tumor to tissue ratio.

tumor/tissue cancer/ kidney [2]	tumor/tissue cancer/ liver [2]	tumor/tissue cancer/ lung [2]	tumor/tissue cancer/ serum [2]	SMILES	Hemorrhagic necrosis effect [1]	photograph of a cancer mass (Fig. 1) ([1]; 24 hours after administration, Cn-Ga-DP-diAsp, n = odd numbers)
3.79	3.79	2.89	0.72	CC1=C(CCC(=O)NC(CC(=O)O)C(=O)O)C2=NC1=Cc1c(C)c(C(C)OCCc3ccccc3)c3[n]1[Ga][n]1c(c(C)c(CCC(=O)NC(CC(=O)O)C(=O)O)c1=C2)=CC1=NC(=C3)C(C)=C1C(C)OCCc1ccccc1 (stereo not shown) [(14) C8(Phenethyl)-Ga-DP-diAsp, 2,4-bis(1-phenethyloxyethyl)-Ga-deuteroporphynyl diaspartic acid]	G1	–
3.03	2.63	2.33	1.54	CC1=C(CCC(=O)NC(CC(=O)O)C(=O)O)C2=NC1=Cc1c(C)c(C(C)OC(C)C)c3[n]1[Ga][n]1c(c(C)c(CCC(=O)NC(CC(=O)O)C(=O)O)c1=C2)=CC1=NC(=C3)C(C)=C1C(C)OC(C)C (stereo not shown) [(7) C3(iso)-Ga-DP-diAsp, 2,4-bis(1-isopropoxyethyl)-Ga-deuteroporphynyl diaspartic acid]	G2	–
1.32	2.30	1.50	–	C=CC1=C(C)C2=Cc3c(C(C)OCCO)c(C)c4[n]3[Ga][n]3c(c(C)c(CCC(=O)NC(CC(=O)O)C(=O)O)c3=CC3=NC(=C4)C(C)=C3CCC(=O)NC(CC(=O)O)C(=O)O)=CC1=N2 (stereo not shown) [(2) monoEG-Ga-DP-diAsp, 2-[1-(2-hydroxyethyloxy)ethyl]-4-ethenyl-Ga-deuteroporphynyl diaspartic acid]	G1	–
11.49	9.09	11.11	3.50	CC1=C(CCC(=O)NC(CC(=O)O)C(=O)O)C2=NC1=Cc1c(C)c(C(C)OCCC(C)CCCC(C)C)c3[n]1[Ga][n]1c(c(C)c(CCC(=O)NC(CC(=O)O)C(=O)O)c1=C2)=CC1=NC(=C3)C(C)=C1C(C)OCCC(C)CCCC(C)C (stereo not shown) [(19) C10(H2Citro)-Ga-DP-diAsp, 2,4-bis(1-dihydrocitronellyloxyethyl)-Ga-deuteroporphynyl diaspartic acid]	G2	–
15.66	11.37	12.39	2.82	CC(C)=CCCC(C)CCOC(C)C1=C(C)C2=Cc3c(C(C)OCCC(C)CCC=C(C)C)c(C)c4[n]3[Ga][n]3c(c(C)c(CCC(=O)NC(CC(=O)O)C(=O)O)c3=CC3=NC(=C4)C(C)=C3CCC(=O)NC(CC(=O)O)C(=O)O)=CC1=N2 (stereo not shown) [(18) C10(Citro)-Ga-DP-diAsp, 2,4-bis(1-citronellyloxyethyl)-Ga-deuteroporphynyl diaspartic acid]	G2	–
6.58	4.07	3.89	0.89	CCCCCOC(C)C1=C(C)C2=Cc3c(C(C)OCCCCC)c(C)c4[n]3[Ga][n]3c(c(C)c(CCC(=O)NC(CC(=O)O)C(=O)O)c3=CC3=NC(=C4)C(C)=C3CCC(=O)NC(CC(=O)O)C(=O)O)=CC1=N2 (stereo not shown) [(9) C5-Ga-DP-diAsp, 2,4-bis(1-pentyloxyethyl)-Ga-deuteroporphynyl diaspartic acid]	G4	hemorrhagic necrosis
–	–	–	–	CCCCCCCCCCOC(C)C1=C(C)C2=Cc3c(C(C)OCCCCCCCCCC)c(C)c4[n]3[Co][n]3c(c(C)c(CCC(=O)NC(CC(=O)O)C(=O)O)c3=CC3=NC(=C4)C(C)=C3CCC(=O)NC(CC(=O)O)C(=O)O)=CC1=N2 (stereo not shown) [(66) C10-Co-DP-diAsp, 2,4-bis(1-decyloxyethyl)-Co-deuteroporphynyl diaspartic acid]	G1	–
–	–	–	–	CC1=C(CCC(=O)NC(CC(=O)O)C(=O)O)c2cc3[nH]c(cc4nc(cc5[nH]c(cc1n2)c(C(C)OCCC(C)CCCC(C)C)c5C)C(C(C)OCCC(C)CCCC(C)C)=C4C)c(C)c3CCC(=O)NC(CC(=O)O)C(=O)O.[Mn] (stereo not shown) [(44) C10(H2Citro)-Mn-DP-diAsp, 2,4-bis(1-dihydrocitronellyloxyethyl)-Mn-deuteroporphynyl diaspartic acid]	G4	–
–	–	–	–	C=CC1=C(C)C2=Cc3c(C(C)OCCCCCCCCCCCC)c(C)c4[n]3[Mn][n]3c(c(C)c(CCC(=O)NC(CC(=O)O)C(=O)O)c3=CC3=NC(=C4)C(C)=C3CCC(=O)NC(CC(=O)O)C(=O)O)=CC1=N2 (stereo not shown) [(49) C12(mono)-Mn-DP-diAsp, 2-(1-dodecyloxyethyl)-4-ethenyl-Mn-deuteroporphynyl diaspartic acid]	G2	–
–	–	–	–	CCCCCCCCCCOC(C)C1=C(C)C2=Cc3c(C(C)OCCCCCCCCCC)c(C)c4[n]3[Mn][n]3c(c(C)c(CCC(=O)NC(CC(C)C)C(=O)NC(CC(=O)O)C(=O)O)c3=CC3=NC(=C4)C(C)=C3CCC(=O)NC(CC(C)C)C(=O)NC(CC(=O)O)C(=O)O)=CC1=N2 (stereo not shown) [(40) C10-Mn-DP-diLeu-diAsp, 2,4-bis(1-decyloxyethyl)-Mn-deuteroporphynyl dileucyldiaspartic acid]	G2	–
–	–	–	–	CCCCCCCCCCCCCCOC(C)C1=C(C)C2=Cc3c(C(C)OCCCCCCCCCCCCCC)c(C)c4[n]3[Mn][n]3c(c(C)c(CCC(=O)NC(CC(=O)O)C(=O)O)c3=CC3=NC(=C4)C(C)=C3CCC(=O)NC(CC(=O)O)C(=O)O)=CC1=N2 (stereo not shown) [(51) C14-Mn-DP-diAsp, 2,4-bis(1-tetradecyloxyethyl)-Mn-deuteroporphynyl diaspartic acid]	G3	–
–	–	–	–	C=CC1=C(C)C2=Cc3c(C(C)OCCC(C)CCCC(C)C)c(C)c4[n]3[Mn][n]3c(c(C)c(CCC(=O)NC(CC(=O)O)C(=O)O)c3=CC3=NC(=C4)C(C)=C3CCC(=O)NC(CC(=O)O)C(=O)O)=CC1=N2 (stereo not shown) [(45) C10(H2Citro,mono)-Mn-DP-diAsp, 2-(1-dihydrocitronellyloxyethyl)-4-ethenyl-Mn-deuteroporphynyl diaspartic acid]	G2	–
–	–	–	–	CCCCCCCCCCCCOC(C)C1=C(C)c2cc3[nH]c(cc4nc(cc5[nH]c(cc1n2)c(C)c5C(C)OCCCCCCCCCCCC)C(C)=C4CCC(=O)NC(CC(=O)O)C(=O)O)c(CCC(=O)NC(CC(=O)O)C(=O)O)c3C.[Co] (stereo not shown) [(67) C12-Co-DP-diAsp, 2,4-bis(1-dodecyloxyethyl)-Co-deuteroporphynyl diaspartic acid]	G1	–
–	–	–	–	CCCCCCCCOC(C)C1=C(C)C2=Cc3c(C(C)OCCCCCCCC)c(C)c4[n]3[Mn][n]3c(c(C)c(CCC(=O)NC(CC(=O)O)C(=O)O)c3=CC3=NC(=C4)C(C)=C3CCC(=O)NC(CC(=O)O)C(=O)O)=CC1=N2 (stereo not shown) [(36) C8-Mn-DP-diAsp, 2,4-bis(1-octyloxyethyl)-Mn-deuteroporphynyl diaspartic acid]	G3	–
–	–	–	–	CC1=C(CCC(=O)NC(CC(=O)O)C(=O)O)C2=NC1=Cc1c(C)c(C(C)OCc3cccnc3)c3[n]1[Mn][n]1c(c(C)c(CCC(=O)NC(CC(=O)O)C(=O)O)c1=C2)=CC1=NC(=C3)C(C)=C1C(C)OCc1cccnc1 (stereo not shown) [(57) Nct-Mn-DP-diAsp, 2,4-bis(1-nicotynyloxyethyl)-Mn-deuteroporphynyl diaspartic acid]	G2	–
–	–	–	–	CCCCCCCCCCCCOC(C)C1=C(C)C2=Cc3c(C(C)OCCCCCCCCCCCC)c(C)c4[n]3[Zn][n]3c(c(C)c(CCC(=O)NC(CC(=O)O)C(=O)O)c3=CC3=NC(=C4)C(C)=C3CCC(=O)NC(CC(=O)O)C(=O)O)=CC1=N2 (stereo not shown) [(73) C12-Zn-DP-diAsp, 2,4-bis(1-dodecyloxyethyl)-Zn-deuteroporphynyl diaspartic acid]	G2	–
